Tests used:
[1] = system: A549-ACE2 infected with SARS-CoV-2; assay: morphology score (similarity to uninfected cells); higher = more like uninfected cells; details: 24 h
[2] = system: A549-ACE2 infected with SARS-CoV-2; assay: cell count relative to DMSO; higher = less toxic; details: 24 h
U2OS [3] = assay: relative viability EC50 (midpoint between 100% and the lowest measured viability); higher = less toxic; details: 72 h
HepG2 [4] = assay: as above; details: 72 h
Caco-2 [5] = assay: as above; details: 72 h
Calu-3 [6] = assay: as above; details: 72 h
U2OS [7] = assay: cell viability relative to DMSO; higher = less toxic; details: 72 h
HepG2 [8] = assay: as above; details: 72 h
Caco-2 [9] = assay: as above; details: 72 h
Calu-3 [10] = assay: as above; details: 72 h
Vero E6 [11] = assay: as above; details: 72 h
U2OS [12] = assay: drug sensitivity score (DSS) for viability; higher = more toxic; extreme values may be limits of the assay; details: 72 h
HepG2 [13] = assay: as above; details: 72 h
Caco-2 [14] = assay: as above; details: 72 h
Calu-3 [15] = assay: as above; details: 72 h
Vero E6 [16] = assay: as above; details: 72 h
A549-ACE2 [17] = assay: drug-induced phospholipidosis relative to tamoxifen; higher = more phospholipidosis
[18] = system: A549-ACE2 infected with SARS-CoV-2; assay: SARS-CoV-2 infection rate relative to DMSO; higher = more infection; details: 24 h
A549-ACE2 [19] = assay: phospholipidosis EC50; higher = less potent phospholipidosis inducer
Vero E6 [20] = assay: relative viability EC50 (midpoint between 100% and the lowest measured viability); higher = less toxic; details: 72 h

Nc1nc(O)c2[nH]nnc2n1 [azaguanine-8]
Details | SARS-CoV-2 infection rate, [18] [%] | cell count, [2] [%] | cell viability, Caco-2 [9] [%] | cell viability, Calu-3 [10] [%] | cell viability, HepG2 [8] [%] | cell viability, U2OS [7] [%] | cell viability, Vero E6 [11] [%] | morphology score, [1]
1 nM | – | – | 104 | 94.4 | 102 | 102 | 104 | –
10 nM | – | – | 105 | 94 | 100 | 95.4 | 103 | –
0.1 µM | 106 | 102 | – | – | – | – | – | 0.12
100 nM | – | – | 93.5 | 89.5 | 100 | 102 | 105 | –
0.3 µM | 91 | 104 | – | – | – | – | – | 0.27
1 µM | 96 | 102 | – | – | – | – | – | 0.08
1000 nM | – | – | 91.9 | 89.5 | 106 | 97.6 | 103 | –
3 µM | 94 | 102 | – | – | – | – | – | 0.33
10000 nM | – | – | 91.1 | 81.2 | 29.6 | 89.2 | 52 | –

Details | drug sensitivity score | relative viability EC50 [µM]
Caco-2 [5] | – | > 10
Caco-2 [14] | 0 | –
Calu-3 [6] | – | > 10
Calu-3 [15] | 1.4 | –
HepG2 [4] | – | 3.6
HepG2 [13] | 3.4 | –
U2OS [3] | – | > 10
U2OS [12] | 0.1 | –
Vero E6 [16] | 2.3 | –

drug-induced phospholipidosis [%], A549-ACE2 [17]
Details | 0.3 µM | 0.833333 µM | 3.33333 µM | 6.66667 µM | 10 µM | 30 µM
24 h | 2.81 | -0.65 | -1.26 | -0.07 | 3.53 | 16.6
48 h | 3.95 | -1.52 | -4.45 | -3.51 | -4.77 | –
72 h | 5.19 | -2.08 | -1.89 | -4.08 | -4.93 | –

CNCCCCOc1ccccc1Cc1ccccc1 [bifemelane]
Details | SARS-CoV-2 infection rate [%] | cell count [%] | cell viability [%] | morphology score | phospholipidosis EC50 [µM]
A549-ACE2 [19], 24 h | – | – | – | – | 5.4
A549-ACE2 [19], 48 h | – | – | – | – | 5.1
A549-ACE2 [19], 72 h | – | – | – | – | 6.67
Caco-2 [9], 1 nM | – | – | 100 | – | –
Caco-2 [9], 10 nM | – | – | 101 | – | –
Caco-2 [9], 100 nM | – | – | 91.5 | – | –
Caco-2 [9], 1000 nM | – | – | 102 | – | –
Caco-2 [9], 10000 nM | – | – | 89.3 | – | –
Calu-3 [10], 1 nM | – | – | 112 | – | –
Calu-3 [10], 10 nM | – | – | 104 | – | –
Calu-3 [10], 100 nM | – | – | 95.8 | – | –
Calu-3 [10], 1000 nM | – | – | 90.1 | – | –
Calu-3 [10], 10000 nM | – | – | 104 | – | –
HepG2 [8], 1 nM | – | – | 98.7 | – | –
HepG2 [8], 10 nM | – | – | 101 | – | –
HepG2 [8], 100 nM | – | – | 89.5 | – | –
HepG2 [8], 1000 nM | – | – | 92.7 | – | –
HepG2 [8], 10000 nM | – | – | 85 | – | –
U2OS [7], 1 nM | – | – | 96.6 | – | –
U2OS [7], 10 nM | – | – | 91.1 | – | –
U2OS [7], 100 nM | – | – | 102 | – | –
U2OS [7], 1000 nM | – | – | 96.5 | – | –
U2OS [7], 10000 nM | – | – | 92.6 | – | –
Vero E6 [11], 1 nM | – | – | 109 | – | –
Vero E6 [11], 10 nM | – | – | 102 | – | –
Vero E6 [11], 100 nM | – | – | 96.8 | – | –
Vero E6 [11], 1000 nM | – | – | 100 | – | –
Vero E6 [11], 10000 nM | – | – | 89.5 | – | –
[1], 0.3 µM | – | – | – | -0.03 | –
[1], 3 µM | – | – | – | 0.43 | –
[1], 10 µM | – | – | – | 0.7 | –
[1], 30 µM | – | – | – | 0.69 | –
[2], 0.3 µM | – | 100 | – | – | –
[2], 3 µM | – | 106 | – | – | –
[2], 10 µM | – | 115 | – | – | –
[2], 30 µM | – | 110 | – | – | –
[18], 0.3 µM | 101 | – | – | – | –
[18], 3 µM | 96 | – | – | – | –
[18], 10 µM | 43 | – | – | – | –
[18], 30 µM | 16 | – | – | – | –

Details | drug sensitivity score | relative viability EC50 [µM]
Caco-2 [5] | – | > 10
Caco-2 [14] | 0 | –
Calu-3 [6] | – | > 10
Calu-3 [15] | 0 | –
HepG2 [4] | – | > 10
HepG2 [13] | 0.6 | –
U2OS [3] | – | > 10
U2OS [12] | 0 | –
Vero E6 [16] | 0 | –
Vero E6 [20] | – | > 10

drug-induced phospholipidosis [%], A549-ACE2 [17]
Details | 0.3 µM | 0.833333 µM | 3.33333 µM | 6.66667 µM | 10 µM | 30 µM
24 h | 0.28 | 1.11 | 22.9 | 61.8 | 79.9 | 96.4
48 h | -0.08 | -3.86 | 22.6 | 74.8 | 87.4 | 108
72 h | 3.27 | -0.257 | 16.8 | 61.6 | 86.2 | 116

CC/C(=C(/c1ccc(OCCN(C)C)cc1)c1cccc(O)c1)c1ccccc1 [droloxifene]
Details | SARS-CoV-2 infection rate [%] | cell count [%] | cell viability [%] | morphology score | phospholipidosis EC50 [µM]
A549-ACE2 [19], 24 h | – | – | – | – | 1.57
A549-ACE2 [19], 48 h | – | – | – | – | 3.25
A549-ACE2 [19], 72 h | – | – | – | – | 3.45
Caco-2 [9], 1 nM | – | – | 100 | – | –
Caco-2 [9], 10 nM | – | – | 97.1 | – | –
Caco-2 [9], 100 nM | – | – | 92.5 | – | –
Caco-2 [9], 1000 nM | – | – | 97.4 | – | –
Caco-2 [9], 10000 nM | – | – | 43.8 | – | –
Calu-3 [10], 1 nM | – | – | 100 | – | –
Calu-3 [10], 10 nM | – | – | 96.2 | – | –
Calu-3 [10], 100 nM | – | – | 98.7 | – | –
Calu-3 [10], 1000 nM | – | – | 87.1 | – | –
Calu-3 [10], 10000 nM | – | – | 11 | – | –
HepG2 [8], 1 nM | – | – | 87.1 | – | –
HepG2 [8], 10 nM | – | – | 101 | – | –
HepG2 [8], 100 nM | – | – | 96.9 | – | –
HepG2 [8], 1000 nM | – | – | 109 | – | –
HepG2 [8], 10000 nM | – | – | 48.8 | – | –
U2OS [7], 1 nM | – | – | 97.7 | – | –
U2OS [7], 10 nM | – | – | 91.5 | – | –
U2OS [7], 100 nM | – | – | 102 | – | –
U2OS [7], 1000 nM | – | – | 96 | – | –
U2OS [7], 10000 nM | – | – | 75.5 | – | –
Vero E6 [11], 1 nM | – | – | 95.8 | – | –
Vero E6 [11], 10 nM | – | – | 99.1 | – | –
Vero E6 [11], 100 nM | – | – | 93.7 | – | –
Vero E6 [11], 1000 nM | – | – | 95.8 | – | –
Vero E6 [11], 10000 nM | – | – | 92.6 | – | –
[1], 0.3 µM | – | – | – | 0.24 | –
[1], 3 µM | – | – | – | 0.61 | –
[1], 10 µM | – | – | – | 0.81 | –
[1], 30 µM | – | – | – | 0.15 | –
[2], 0.3 µM | – | 102 | – | – | –
[2], 3 µM | – | 113 | – | – | –
[2], 10 µM | – | 110 | – | – | –
[2], 30 µM | – | 102 | – | – | –
[18], 0.3 µM | 93 | – | – | – | –
[18], 3 µM | 64 | – | – | – | –
[18], 10 µM | 13 | – | – | – | –
[18], 30 µM | 39 | – | – | – | –

Details | drug sensitivity score | relative viability EC50 [µM]
Caco-2 [5] | – | 2.8
Caco-2 [14] | 3.4 | –
Calu-3 [6] | – | 2.02
Calu-3 [15] | 7.1 | –
HepG2 [4] | – | 3.84
HepG2 [13] | 2.2 | –
U2OS [3] | – | > 10
U2OS [12] | 1.5 | –
Vero E6 [16] | 0 | –
Vero E6 [20] | – | > 10

drug-induced phospholipidosis [%], A549-ACE2 [17]
Details | 0.3 µM | 0.833333 µM | 3.33333 µM | 6.66667 µM | 10 µM | 30 µM
24 h | 2.02 | 14.1 | 52.7 | 74.9 | 75.2 | 51.7
48 h | 8.07 | 8.41 | 50.9 | 81.7 | 87.7 | –
72 h | 3.83 | 3.63 | 41.9 | 82 | 85.5 | –

Reference: the supplement of paper PMC13380429
